Data published in patent publication USRE31396E, “A-21978 Antibiotics and process for their production” (priority 1982, dated 1983).
Converted amounts (≈) assume the structure as drawn. Like-named read-outs stand apart in the source and are kept apart here.

Legend:
[1] = tested on: Streptococcus faecalis (Guze); assay: In vitro susceptibility of the S. faecalis Guze strain; type: cell-based
Text: ^1 In vitro susceptibility of the S. faecalis Guze strain

[2] = tested on: Staphylococcus aureus; assay: ICS agar-dilution, clinical isolates; type: cell-based; conditions: Staphylococcus aureus (10 isolates), MIC or MIC range of isolates
[3] = tested on: Bacteroides fragilis; assay: Standard agar-dilution test, anaerobic bacteria; type: cell-based; conditions: anaerobe
[4] = tested on: Staphylococcus aureus 3055; assay: Standard broth-dilution test; type: cell-based
[5] = tested on: Staphylococcus epidermidis; assay: ICS agar-dilution, clinical isolates; type: cell-based; conditions: Staphylococcus epidermidis (12 isolates)
[6] = tested on: Streptococcus pneumoniae Park I; assay: Standard broth-dilution test; type: cell-based
[7] = tested on: Eubacterium aerofaciens; assay: Standard agar-dilution test, anaerobic bacteria; type: cell-based; conditions: anaerobe
[8] = tested on: Streptococcus pneumoniae Park I; assay: Standard agar-dilution test; type: cell-based
[9] = tested on: Peptostreptococcus intermedius; assay: Standard agar-dilution test, anaerobic bacteria; type: cell-based; conditions: anaerobe
[10] = tested on: Staphylococcus aureus 3055; assay: Standard agar-dilution test; type: cell-based
[11] = tested on: Peptococcus asaccharolyticus; assay: Standard agar-dilution test, anaerobic bacteria; type: cell-based; conditions: anaerobe
[12] = tested on: Streptococcus pyogenes; assay: Experimental bacterial infection in mice; type: in vivo; conditions: two doses
Procedure: (§1) When two doses of test compound were administered to mice in illustrative infections, the activity observed as measured as an ED50 value [effective dose in mg/kg to protect fifty percent of the test animals: See Warren Wick, et al., J. Bacteriol. 81, 233-235 (1961)].

[13] = tested on: Streptococcus pneumoniae; assay: Experimental bacterial infection in mice; type: in vivo; conditions: subcutaneous administration, two doses
Procedure: as §1

[14] = tested on: Staphylococcus aureus; assay: Experimental bacterial infection in mice; type: in vivo; conditions: subcutaneous administration, two doses
Procedure: as §1

[15] = tested on: Group D Streptococcus 282; assay: Standard agar-dilution test; type: cell-based
[16] = tested on: Viridans Streptococcus 9943; assay: Standard broth-dilution test; type: cell-based
[17] = tested on: Fusobacterium necrophorum; assay: Standard agar-dilution test, anaerobic bacteria; type: cell-based; conditions: anaerobe
[18] = tested on: Actinomyces israelii; assay: Standard agar-dilution test, anaerobic bacteria; type: cell-based; conditions: anaerobe
[19] = tested on: Micrococcus luteus; assay: Paper-disc agar-diffusion bioassay; conditions: Na salts
[20] = tested on: Neisseria gonorrhoeae 111076-4; assay: Standard agar-dilution test; type: cell-based
[21] = tested on: Peptostreptococcus anaerobius; assay: Standard agar-dilution test, anaerobic bacteria; type: cell-based; conditions: anaerobe
[22] = tested on: Streptococcus pyogenes C203; assay: Standard agar-dilution test; type: cell-based
[23] = tested on: Peptococcus prevoti; assay: Standard agar-dilution test, anaerobic bacteria; type: cell-based; conditions: anaerobe
[24] = Rat, IV
[25] = Mouse
[26] = tested on: Streptococcus pyogenes; assay: Agar dilution MIC (Table XV); type: cell-based
Text: (§2) ^1 MIC = minimum inhibitory concentration (μg/ml), agar dilution

[27] = tested on: Streptococcus pneumoniae; assay: Agar dilution MIC (Table XV); type: cell-based
Text: as §2

[28] = tested on: Staphylococcus aureus; assay: Agar dilution MIC (Table XV); type: cell-based
Text: as §2

[29] = tested on: Propionibacterium acnes; assay: Standard agar-dilution test, anaerobic bacteria; type: cell-based; conditions: anaerobe
[30] = tested on: Streptococcus pyogenes C203; assay: Standard broth-dilution test; type: cell-based
[31] = tested on: Viridans Streptococcus 9943; assay: Standard agar-dilution test; type: cell-based
[32] = tested on: Streptococcus faecalis (Guze); assay: Streptococcus faecalis descending rat pyelonephritis test; conditions: rat dose 1.0 mg/kg × 7, subcutaneous
[33] = tested on: Group D Streptococcus 282; assay: Standard broth-dilution test; type: cell-based
[34] = tested on: Clostridium perfringens; type: cell-based; conditions: anaerobe
[35] = tested on: Clostridium septicum; assay: Standard agar-dilution test, anaerobic bacteria; type: cell-based; conditions: anaerobe
[36] = tested on: Fusobacterium symbiosum; assay: Standard agar-dilution test, anaerobic bacteria; type: cell-based; conditions: anaerobe

Work on `CN[C@H](CC(C)C)C(=O)N[C@H]1C(=O)N[C@@H](CC(N)=O)C(=O)N[C@H]2C(=O)N[C@H]3C(=O)N[C@H](C(=O)N[C@H](C(=O)O)c4cc(O)cc(O)c4-c4cc3ccc4O)[C@H](O)c3ccc(c(Cl)c3)Oc3cc2cc(c3O[C@@H]2O[C@H](CO)[C@@H](O)[C@H](O)[C@H]2O[C@H]2C[C@](C)(N)[C@H](O)[C@H](C)O2)Oc2ccc(cc2Cl)[C@H]1O` [Vancomycin, reference compound] yielded an MIC ([1]; Enterococcus faecalis, read-out: MIC) of 1 µg/mL (≈ 0.69 µM).
With `CCC(C)CCCCCCC(=O)NC(Cc1c[nH]c2ccccc12)C(=O)NC(CC(N)=O)C(=O)NC(CC(=O)O)C(=O)NC1C(=O)NCC(=O)NC(CCCN)C(=O)NC(CC(=O)O)C(=O)NC(C)C(=O)NC(CC(=O)O)C(=O)NCC(=O)NC(CO)C(=O)NC(C(C)CC(=O)O)C(=O)NC(CC(=O)c2ccccc2N)C(=O)OC1C` (stereo not shown) [Factor C1] the “Minimum Inhibitory Concentration” value [2] was 0.5 µg/mL, the MIC [3] was > 128 µg/mL and the MIC [4] was 1.0 µg/mL (≈ 0.612 µM). For the same compound, the “Minimum Inhibitory Concentration” value [5] was 0.13 to 0.25 µg/mL, the MIC [6] was 2.0 µg/mL (≈ 1.22 µM) and the MIC [7] was 16 µg/mL (≈ 9.79 µM). It also gave an MIC [8] of 0.13 µg/mL (≈ 0.0795 µM), an MIC [1] of 1.0 µg/mL (≈ 0.612 µM) and an MIC [9] of 4 µg/mL (≈ 2.45 µM). It also gave an MIC [10] of 0.5 µg/mL (≈ 0.306 µM), an MIC [11] of 4 µg/mL (≈ 2.45 µM) and an ED50 ([12]; oral administration) of 93 mg/kg. For the same compound, the ED50 ([12]; subcutaneous administration) was 0.064 mg/kg, the ED50 [13] was 0.3 mg/kg and the ED50 [14] was 0.22 mg/kg. It also gave an MIC [15] of 1.0 µg/mL (≈ 0.612 µM), an MIC [16] of 32.0 µg/mL (≈ 19.6 µM) and an MIC [17] of 64 µg/mL (≈ 39.2 µM). The MIC [18] was 4 µg/mL (≈ 2.45 µM), the “Bioassay (Micrococcus luteus)” value [19] was 1663 units/mg and the MIC [20] was 16.0 µg/mL (≈ 9.79 µM). The MIC [21] was 2 µg/mL (≈ 1.22 µM), the MIC [22] was 0.13 µg/mL (≈ 0.0795 µM) and the MIC [23] was 2 µg/mL (≈ 1.22 µM). The LD50 [24] was 479 ± 32 mg/kg, the LD50 ([25]; IV) was > 250 mg/kg and the LD50 ([25]; SC) was > 365 mg/kg. The MIC [26] was 0.13 µg/mL (≈ 0.0795 µM), the MIC [27] was 0.13 µg/mL (≈ 0.0795 µM) and the MIC [28] was 0.5 µg/mL (≈ 0.306 µM). It also gave an MIC [29] of 8 µg/mL (≈ 4.89 µM), an MIC [30] of 0.5 µg/mL (≈ 0.306 µM) and an MIC [31] of 0.5 µg/mL (≈ 0.306 µM). The “Percent of Rats with a 4-Log Titer Decrease” value [32] was 50, the “Percent of Rats Cured” value ([32]; kidney counts less than 10^2 per g) was 50 and the MIC [33] was 2.0 µg/mL (≈ 1.22 µM). For the same compound, the MIC [34] was 16 µg/mL (≈ 9.79 µM), the MIC [35] was 4 µg/mL (≈ 2.45 µM) and the MIC [36] was > 128 µg/mL.
